# Laboratory results as given in paper PMC7180948, “New Insights into 4-Anilinoquinazolines as Inhibitors of Cardiac Troponin I–Interacting Kinase (TNNi3K)” (Molecules, 2020).
# Tests used:
# Test in all cases: biochemical
# Parameters in all cases: KINOMEscan competition binding panel (Eurofins DiscoverX), single concentration, % inhibition
# Conditions in all cases: read-out: 7 at 1 µM % inhibition
# [1] = target: PKN1 (Homo sapiens, UniProt Q16512)
# In short: (§1)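 Selectivity profile from a KINOMEscan run against >400 human kinases; test concentration 1 µM.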
# [2] = target: PAK1 (Homo sapiens, UniProt Q13153)
# In short: as §1
# [3] = target: T1, BIKE (Homo sapiens, UniProt Q9NSY1)
# T1 construct: gene BMP2K
# In short: as §1
# [4] = target: PRKCQ (Homo sapiens, UniProt Q04759)
# In short: as §1
# [5] = target: T2, RSK4(Kin.Dom.2-C-terminal) (Homo sapiens, UniProt Q9UK32)
# T2 construct: gene RPS6KA6; Kin.Dom.2-C-terminal
# In short: as §1
# [6] = target: CLK4 (Homo sapiens, UniProt Q9HAZ1)
# In short: as §1
# [7] = target: T3, ABL1(F317I)-phosphorylated (Homo sapiens, UniProt P00519, F317I)
# T3 construct: phosphorylated
# In short: as §1
# [8] = target: T4, JNK3 (Homo sapiens, UniProt P53779)
# T4 construct: gene MAPK10
# In short: as §1
# [9] = target: CDK7 (Homo sapiens, UniProt P50613)
# In short: as §1
# [10] = target: MAP3K1 (Homo sapiens, UniProt Q13233)
# In short: as §1
# [11] = target: T5, MST4 (Homo sapiens, UniProt Q9P289)
# T5 construct: gene STK26
# In short: as §1
# [12] = target: T6, ABL1(H396P)-phosphorylated (Homo sapiens, UniProt P00519, H396P)
# T6 construct: phosphorylated
# In short: as §1
# [13] = target: EGFR(L747-T751del,Sins) (Homo sapiens, UniProt P00533, DEL747-750/T751S)
# In short: as §1
# [14] = target: CAMKK2 (Homo sapiens, UniProt Q96RR4)
# In short: as §1
# [15] = target: AURKB (Homo sapiens, UniProt Q96GD4)
# In short: as §1
# [16] = target: T7, ABL1(Q252H)-phosphorylated (Homo sapiens, UniProt P00519, Q252H)
# T7 construct: phosphorylated
# In short: as §1
# [17] = target: CDKL1 (Homo sapiens, UniProt Q00532)
# In short: as §1
# [18] = target: EPHA8 (Homo sapiens, UniProt P29322)
# In short: as §1
# [19] = target: MAP4K5 (Homo sapiens, UniProt Q9Y4K4)
# In short: as §1
# [20] = target: DAPK3 (Homo sapiens, UniProt O43293)
# In short: as §1
# [21] = target: PAK3 (Homo sapiens, UniProt O75914)
# In short: as §1
# [22] = target: AURKC (Homo sapiens, UniProt Q9UQB9)
# In short: as §1
# [23] = target: T8, YANK1 (Homo sapiens, UniProt Q8WU08)
# T8 construct: gene STK32A
# In short: as §1
# [24] = target: ERBB4 (Homo sapiens, UniProt Q15303)
# In short: as §1
# Chain of AURKB (Q96GD4 whole entry): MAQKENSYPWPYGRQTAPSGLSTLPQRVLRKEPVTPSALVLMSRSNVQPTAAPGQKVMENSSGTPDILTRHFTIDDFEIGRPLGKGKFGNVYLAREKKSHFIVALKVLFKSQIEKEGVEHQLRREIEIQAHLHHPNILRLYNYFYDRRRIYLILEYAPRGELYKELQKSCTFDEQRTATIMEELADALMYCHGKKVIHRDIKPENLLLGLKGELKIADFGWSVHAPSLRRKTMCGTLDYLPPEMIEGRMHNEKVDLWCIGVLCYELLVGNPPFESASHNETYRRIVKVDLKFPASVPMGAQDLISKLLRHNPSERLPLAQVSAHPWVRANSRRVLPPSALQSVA
# Chain of ERBB4 (Q15303 whole entry): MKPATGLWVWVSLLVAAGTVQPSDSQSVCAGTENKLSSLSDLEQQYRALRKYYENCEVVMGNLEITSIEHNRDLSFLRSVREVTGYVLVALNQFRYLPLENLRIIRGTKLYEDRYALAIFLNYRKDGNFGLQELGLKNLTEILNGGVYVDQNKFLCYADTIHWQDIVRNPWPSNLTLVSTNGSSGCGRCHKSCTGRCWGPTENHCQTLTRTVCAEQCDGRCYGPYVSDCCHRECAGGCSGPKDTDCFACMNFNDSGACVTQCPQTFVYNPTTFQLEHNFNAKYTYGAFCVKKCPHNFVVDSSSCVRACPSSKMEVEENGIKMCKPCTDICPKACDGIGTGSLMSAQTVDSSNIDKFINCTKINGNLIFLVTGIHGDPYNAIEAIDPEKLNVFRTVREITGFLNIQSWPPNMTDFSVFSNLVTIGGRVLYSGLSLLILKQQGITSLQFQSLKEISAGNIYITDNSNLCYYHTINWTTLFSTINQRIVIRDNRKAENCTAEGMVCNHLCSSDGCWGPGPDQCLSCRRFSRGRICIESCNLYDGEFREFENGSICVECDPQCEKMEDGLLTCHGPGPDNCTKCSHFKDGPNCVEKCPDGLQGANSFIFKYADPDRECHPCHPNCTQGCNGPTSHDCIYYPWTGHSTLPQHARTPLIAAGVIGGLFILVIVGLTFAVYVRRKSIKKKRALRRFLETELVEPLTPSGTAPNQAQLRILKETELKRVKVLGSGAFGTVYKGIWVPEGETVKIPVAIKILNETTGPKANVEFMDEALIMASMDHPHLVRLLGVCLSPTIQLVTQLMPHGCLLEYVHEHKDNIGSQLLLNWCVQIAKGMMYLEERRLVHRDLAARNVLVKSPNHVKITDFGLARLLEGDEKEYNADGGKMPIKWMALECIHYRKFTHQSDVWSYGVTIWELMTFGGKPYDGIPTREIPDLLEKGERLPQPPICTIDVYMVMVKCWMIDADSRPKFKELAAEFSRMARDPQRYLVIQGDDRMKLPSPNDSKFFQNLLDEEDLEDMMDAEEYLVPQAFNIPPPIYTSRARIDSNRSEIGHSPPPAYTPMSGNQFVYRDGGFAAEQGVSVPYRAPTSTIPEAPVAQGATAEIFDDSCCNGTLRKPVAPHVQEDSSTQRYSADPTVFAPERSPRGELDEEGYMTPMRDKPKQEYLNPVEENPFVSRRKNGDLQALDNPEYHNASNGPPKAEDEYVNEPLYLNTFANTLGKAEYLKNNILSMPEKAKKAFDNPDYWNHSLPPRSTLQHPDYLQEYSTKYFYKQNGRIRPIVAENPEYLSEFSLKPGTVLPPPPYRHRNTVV
# Chain of EGFR(L747-T751del,Sins) (P00533 with tags, fused parts or gaps DEL747-750/T751S): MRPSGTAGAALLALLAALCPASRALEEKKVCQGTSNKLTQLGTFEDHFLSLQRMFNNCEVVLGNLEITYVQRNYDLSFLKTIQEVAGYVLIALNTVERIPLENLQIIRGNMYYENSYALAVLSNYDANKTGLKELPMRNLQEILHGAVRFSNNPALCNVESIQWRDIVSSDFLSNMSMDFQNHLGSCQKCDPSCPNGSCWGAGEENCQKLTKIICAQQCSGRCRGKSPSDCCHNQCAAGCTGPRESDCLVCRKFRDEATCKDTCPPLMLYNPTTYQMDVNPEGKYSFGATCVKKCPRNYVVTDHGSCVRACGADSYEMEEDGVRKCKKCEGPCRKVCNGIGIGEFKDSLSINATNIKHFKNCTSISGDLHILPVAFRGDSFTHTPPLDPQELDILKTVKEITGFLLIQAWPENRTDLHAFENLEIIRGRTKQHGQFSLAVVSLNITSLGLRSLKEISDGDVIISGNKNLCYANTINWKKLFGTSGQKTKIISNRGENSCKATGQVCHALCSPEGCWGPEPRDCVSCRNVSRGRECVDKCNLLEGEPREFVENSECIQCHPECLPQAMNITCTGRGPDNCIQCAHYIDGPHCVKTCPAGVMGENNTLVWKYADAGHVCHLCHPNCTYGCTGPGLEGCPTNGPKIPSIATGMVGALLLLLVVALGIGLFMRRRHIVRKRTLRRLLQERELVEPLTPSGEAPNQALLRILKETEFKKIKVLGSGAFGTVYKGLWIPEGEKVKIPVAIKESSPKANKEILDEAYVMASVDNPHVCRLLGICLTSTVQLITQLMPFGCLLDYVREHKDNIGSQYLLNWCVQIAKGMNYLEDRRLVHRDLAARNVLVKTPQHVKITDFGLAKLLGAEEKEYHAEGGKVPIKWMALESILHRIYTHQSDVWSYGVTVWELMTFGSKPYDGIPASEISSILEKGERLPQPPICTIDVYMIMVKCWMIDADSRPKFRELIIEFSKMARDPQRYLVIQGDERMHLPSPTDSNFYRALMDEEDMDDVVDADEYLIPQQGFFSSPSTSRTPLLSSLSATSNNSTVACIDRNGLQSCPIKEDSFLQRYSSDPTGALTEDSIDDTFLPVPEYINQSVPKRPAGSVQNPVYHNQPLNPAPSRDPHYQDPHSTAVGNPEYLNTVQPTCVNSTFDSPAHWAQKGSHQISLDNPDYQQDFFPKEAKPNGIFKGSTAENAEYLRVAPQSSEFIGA
# Chain of AURKC (Q9UQB9 whole entry): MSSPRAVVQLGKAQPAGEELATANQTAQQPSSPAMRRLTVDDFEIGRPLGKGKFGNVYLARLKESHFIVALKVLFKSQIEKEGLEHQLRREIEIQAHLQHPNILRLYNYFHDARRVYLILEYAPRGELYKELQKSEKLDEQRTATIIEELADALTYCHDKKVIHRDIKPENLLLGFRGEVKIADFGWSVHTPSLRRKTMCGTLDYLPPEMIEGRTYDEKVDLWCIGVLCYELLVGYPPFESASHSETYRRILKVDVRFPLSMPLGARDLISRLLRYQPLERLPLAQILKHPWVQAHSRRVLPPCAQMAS
# T5 sequence (Q9P289 whole entry): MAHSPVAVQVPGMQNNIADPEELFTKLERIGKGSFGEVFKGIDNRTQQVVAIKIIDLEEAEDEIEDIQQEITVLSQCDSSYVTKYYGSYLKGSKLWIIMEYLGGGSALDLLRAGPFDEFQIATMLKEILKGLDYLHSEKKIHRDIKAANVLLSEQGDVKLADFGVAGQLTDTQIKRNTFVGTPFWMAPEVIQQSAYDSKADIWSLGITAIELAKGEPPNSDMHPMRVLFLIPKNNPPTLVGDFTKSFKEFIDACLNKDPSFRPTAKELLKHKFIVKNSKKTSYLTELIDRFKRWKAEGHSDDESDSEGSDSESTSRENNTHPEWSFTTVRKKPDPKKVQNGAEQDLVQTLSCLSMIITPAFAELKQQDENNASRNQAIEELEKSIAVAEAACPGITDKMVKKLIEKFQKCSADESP
# Chain of DAPK3 (O43293 whole entry): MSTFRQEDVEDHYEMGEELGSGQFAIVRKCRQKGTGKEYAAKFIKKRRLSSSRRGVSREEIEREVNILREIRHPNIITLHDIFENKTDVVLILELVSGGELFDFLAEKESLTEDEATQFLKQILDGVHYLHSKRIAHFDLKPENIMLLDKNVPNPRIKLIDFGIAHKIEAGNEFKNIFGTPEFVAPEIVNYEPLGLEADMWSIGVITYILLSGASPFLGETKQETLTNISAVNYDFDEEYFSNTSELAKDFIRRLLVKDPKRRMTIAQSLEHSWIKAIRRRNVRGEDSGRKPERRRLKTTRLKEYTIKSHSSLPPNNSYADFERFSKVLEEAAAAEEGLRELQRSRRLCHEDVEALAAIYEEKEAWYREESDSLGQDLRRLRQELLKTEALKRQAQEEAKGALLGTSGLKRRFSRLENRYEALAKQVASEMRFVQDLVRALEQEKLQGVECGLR
# Chain of PAK1 (Q13153 whole entry): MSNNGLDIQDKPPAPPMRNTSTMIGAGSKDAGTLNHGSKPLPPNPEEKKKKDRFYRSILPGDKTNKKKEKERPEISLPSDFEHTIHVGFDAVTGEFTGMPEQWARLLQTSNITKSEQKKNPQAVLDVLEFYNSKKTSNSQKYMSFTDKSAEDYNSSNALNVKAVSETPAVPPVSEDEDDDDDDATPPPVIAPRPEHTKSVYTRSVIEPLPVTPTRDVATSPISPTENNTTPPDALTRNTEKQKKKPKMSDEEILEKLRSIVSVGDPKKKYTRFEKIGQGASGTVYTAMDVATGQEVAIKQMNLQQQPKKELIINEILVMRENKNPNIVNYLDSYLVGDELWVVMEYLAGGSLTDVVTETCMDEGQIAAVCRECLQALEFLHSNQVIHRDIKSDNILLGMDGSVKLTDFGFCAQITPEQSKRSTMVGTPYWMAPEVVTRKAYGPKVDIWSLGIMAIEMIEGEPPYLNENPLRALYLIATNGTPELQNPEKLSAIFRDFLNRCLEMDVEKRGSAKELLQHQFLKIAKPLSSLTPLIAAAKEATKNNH
# T4 sequence (P53779 whole entry): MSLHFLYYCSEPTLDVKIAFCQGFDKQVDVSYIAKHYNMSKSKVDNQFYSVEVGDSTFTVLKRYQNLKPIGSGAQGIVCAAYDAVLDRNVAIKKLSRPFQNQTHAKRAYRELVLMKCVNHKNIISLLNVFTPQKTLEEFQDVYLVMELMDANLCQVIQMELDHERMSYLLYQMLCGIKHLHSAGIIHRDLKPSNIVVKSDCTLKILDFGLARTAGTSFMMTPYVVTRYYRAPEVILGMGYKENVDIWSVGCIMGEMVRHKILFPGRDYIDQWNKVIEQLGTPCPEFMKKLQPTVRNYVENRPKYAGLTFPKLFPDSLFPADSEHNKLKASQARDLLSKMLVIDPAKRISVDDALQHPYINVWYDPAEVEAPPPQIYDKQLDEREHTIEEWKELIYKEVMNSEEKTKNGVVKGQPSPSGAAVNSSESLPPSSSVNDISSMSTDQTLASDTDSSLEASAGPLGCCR
smiles,measurement,setting,value
"CNS(=O)(=O)c1ccc(N(C)C)c(Nc2ncnc3cc(OC)c(OC)cc23)c1 [compound 7, 3-((6,7-dimethoxyquinazolin-4-yl)amino)-4-(dimethylamino)-N-methylbenzenesulfonamide]",inhibition at 1 µM,[1],0%
same,inhibition at 1 µM,[2],0%
same,inhibition at 1 µM,[3],0%
same,inhibition at 1 µM,[4],28%
same,inhibition at 1 µM,[5],24%
same,inhibition at 1 µM,[6],13%
same,inhibition at 1 µM,[7],40%
same,inhibition at 1 µM,[8],0%
same,inhibition at 1 µM,[9],6%
same,inhibition at 1 µM,[10],0%
same,inhibition at 1 µM,[11],21%
same,inhibition at 1 µM,[12],34%
same,inhibition at 1 µM,[13],0%
same,inhibition at 1 µM,[14],0%
same,inhibition at 1 µM,[15],0%
same,inhibition at 1 µM,[16],79%
same,inhibition at 1 µM,[17],0%
same,inhibition at 1 µM,[18],0%
same,inhibition at 1 µM,[19],0%
same,inhibition at 1 µM,[20],9%
same,inhibition at 1 µM,[21],54%
same,inhibition at 1 µM,[22],0%
same,inhibition at 1 µM,[23],17%
same,inhibition at 1 µM,[24],0%
